# In patent publication US20170056336A1, “CO-TARGETING ANDROGEN RECEPTOR SPLICE VARIANTS AND MTOR SIGNALING PATHWAY FOR THE TREATMENT OF CASTRATION-RESISTANT PROSTATE CANCER” (British Columbia Cancer Agency Branch, priority 2015, published 2017):
# Legend:
# [1] = target: CDK1 (Homo sapiens, UniProt P06493); conditions: higher concentrations; read-out: concentration inhibiting CDK1; cited from earlier work
# [2] = test system: LNCaP95 cells; experiment: Cell proliferation BrdU immunoassay; type: cell-based, human; conditions: R1881 0.1 nM, 48 h, serum-free, Compound A 25 uM, enzalutamide 10 uM, BEZ-235 15 nM, everolimus 10 nM
# [3] = test system: LNCaP95 xenografts; experiment: Immunohistochemistry of harvested xenografts; type: in vivo, mice; conditions: immunohistochemistry
# [4] = target: EGFR/Erb1 (Homo sapiens, UniProt P00533); conditions: higher concentrations; read-out: concentration inhibiting EGFR/Erb1; cited from earlier work
# [5] = test system: LNCaP95 xenografts; experiment: Western blot analyses of protein lysates from xenografts; type: in vivo, mice
# [6] = test system: mTOR and AR pathways in parental LNCaP cells; experiment: Western blot analysis of mTOR and AR pathways in parental LNCaP cells; type: cell-based, human; conditions: BEZ-235 15 nM
# [7] = harvested tumors, Compound A 100 mg/kg, BEZ-235 5 mg/kg
# [8] = xenografts harvested 1 h after last treatment, BEZ-235 5 mg/kg
# [9] = BEZ-235 orally daily at 5 mg/kg body weight
# Sequence of CDK1 (P06493 whole entry, species assumed): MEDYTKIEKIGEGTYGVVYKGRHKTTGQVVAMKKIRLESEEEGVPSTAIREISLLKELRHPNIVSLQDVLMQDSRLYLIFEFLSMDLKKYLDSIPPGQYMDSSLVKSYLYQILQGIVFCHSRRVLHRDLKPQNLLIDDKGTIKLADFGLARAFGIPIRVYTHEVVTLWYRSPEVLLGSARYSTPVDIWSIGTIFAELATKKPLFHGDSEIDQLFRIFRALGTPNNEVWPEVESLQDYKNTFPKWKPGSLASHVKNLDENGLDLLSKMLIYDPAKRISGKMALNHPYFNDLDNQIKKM
# Sequence of CDK1 (P14635 whole entry partner, species assumed): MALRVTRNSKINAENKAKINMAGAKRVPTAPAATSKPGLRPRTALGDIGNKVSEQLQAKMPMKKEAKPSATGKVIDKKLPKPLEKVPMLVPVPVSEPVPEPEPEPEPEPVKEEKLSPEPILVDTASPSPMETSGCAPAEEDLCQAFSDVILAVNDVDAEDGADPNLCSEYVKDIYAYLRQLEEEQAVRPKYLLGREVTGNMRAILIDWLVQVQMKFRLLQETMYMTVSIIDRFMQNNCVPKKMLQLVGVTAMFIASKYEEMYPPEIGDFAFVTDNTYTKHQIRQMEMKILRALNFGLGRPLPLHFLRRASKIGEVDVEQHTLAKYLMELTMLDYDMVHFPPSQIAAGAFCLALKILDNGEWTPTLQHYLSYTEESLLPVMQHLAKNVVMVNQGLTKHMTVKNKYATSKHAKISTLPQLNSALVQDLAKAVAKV
# Sequence of EGFR/Erb1 (P00533 25-1210): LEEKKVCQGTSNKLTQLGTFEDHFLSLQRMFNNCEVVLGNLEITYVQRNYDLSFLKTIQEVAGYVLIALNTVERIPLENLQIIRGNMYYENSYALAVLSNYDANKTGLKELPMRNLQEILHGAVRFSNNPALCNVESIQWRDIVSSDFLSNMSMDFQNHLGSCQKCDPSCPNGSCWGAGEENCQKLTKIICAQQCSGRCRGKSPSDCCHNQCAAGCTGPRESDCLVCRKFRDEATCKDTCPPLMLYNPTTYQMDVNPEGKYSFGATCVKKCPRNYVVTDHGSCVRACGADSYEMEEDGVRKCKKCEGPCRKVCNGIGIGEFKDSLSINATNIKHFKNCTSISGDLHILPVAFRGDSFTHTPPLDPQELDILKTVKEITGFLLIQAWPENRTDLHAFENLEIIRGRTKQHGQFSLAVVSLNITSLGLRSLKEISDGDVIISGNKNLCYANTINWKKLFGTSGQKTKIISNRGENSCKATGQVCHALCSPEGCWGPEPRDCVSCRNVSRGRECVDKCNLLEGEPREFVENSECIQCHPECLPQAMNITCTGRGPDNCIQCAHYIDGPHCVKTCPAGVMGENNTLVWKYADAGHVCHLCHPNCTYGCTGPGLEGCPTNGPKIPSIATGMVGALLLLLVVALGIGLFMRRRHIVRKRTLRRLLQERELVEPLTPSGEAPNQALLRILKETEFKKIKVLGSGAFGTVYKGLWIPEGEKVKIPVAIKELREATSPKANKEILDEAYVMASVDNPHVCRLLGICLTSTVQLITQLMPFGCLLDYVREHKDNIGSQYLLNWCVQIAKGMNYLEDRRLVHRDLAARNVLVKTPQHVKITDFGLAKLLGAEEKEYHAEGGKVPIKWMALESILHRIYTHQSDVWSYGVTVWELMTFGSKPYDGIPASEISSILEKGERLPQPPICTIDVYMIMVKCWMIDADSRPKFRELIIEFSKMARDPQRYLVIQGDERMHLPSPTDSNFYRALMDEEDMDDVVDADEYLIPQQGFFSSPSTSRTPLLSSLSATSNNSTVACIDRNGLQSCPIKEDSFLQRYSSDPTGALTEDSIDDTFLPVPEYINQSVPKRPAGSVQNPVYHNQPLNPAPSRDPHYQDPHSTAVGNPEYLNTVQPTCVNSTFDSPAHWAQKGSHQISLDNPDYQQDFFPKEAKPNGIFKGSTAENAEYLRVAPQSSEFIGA
structure (smiles),measurement,setting,value
"Cn1c(=O)n(-c2ccc(C(C)(C)C#N)cc2)c2c3cc(-c4cnc5ccccc5c4)ccc3ncc21 [BEZ-235, 2-methyl-2-[4-(3-methyl-2-oxo-8-quinolin-3-ylimidazo[4,5-c]quinolin-1-yl)phenyl]propanenitrile]",IC50,[1],> 10 µM
same,proliferation (BrdU incorporation),[2],inhibited
same,UBE2C staining,[3],reduced
same,pS6 staining,[3],reduced
same,IC50,[4],> 8.5 µM
same,levels of p4EBP1,"[5]; harvested tumors, normalized to total 4EBP1",no significant change
same,levels of pAkt,"[5]; harvested tumors, normalized to total Akt",no significant change
same,protein levels of UBE2C,[5]; [7],reduced
same,protein levels of pS6,[5]; [7],reduced
same,protein levels of FKBP5,"[5]; in vivo, monotherapies",reduced
same,protein levels of AR-V7,[5]; [8],reduced
same,protein levels of FL-AR,[5]; [8],reduced
same,mortality of the animals,BEZ-235 45 mg/kg body weight,66%
same,mTOR in tumors,[9],sufficient to block
same,pAkt in tumors,[9],not
same,toxicity,[9],non-toxic
same,pAkt,[6]; LNCaP cells,no effect
same,levels of FL-AR,"[6]; parental LNCaP cells, absence of androgen",increased
same,PSA protein,"[6]; parental LNCaP cells, regardless of androgen status",increased
